The source of these data is US20240228468A1, “N-(6-((OCTAHYDROCYCLOPENTA[C]PYRROL-5-YI)AMINO)PYRIDAZIN-3-YL)PHENYL)CARBOXAMIDE AND (6- ((OCTAHYDROCYCLOPENTA[C]PYRROL-5-YL)AMINO)PYRIDAZIN-3-YL)BENZAMIDE DERIVATIVES AS MACHR M4 ANTAGONISTS FOR THE TREATMENT OF NEURODEGENERATIVE DISORDERS” (Vanderbilt University, priority 2021, published 2024).

The target in the assay is T1, Human M4 (Homo sapiens, UniProt P08173).
T1 construct: expressed in transfected cells; host or cells: CHO-K1 (ATCC), co-transfected with chimeric G protein Gqi5
T1 sequence (P08173 1-479): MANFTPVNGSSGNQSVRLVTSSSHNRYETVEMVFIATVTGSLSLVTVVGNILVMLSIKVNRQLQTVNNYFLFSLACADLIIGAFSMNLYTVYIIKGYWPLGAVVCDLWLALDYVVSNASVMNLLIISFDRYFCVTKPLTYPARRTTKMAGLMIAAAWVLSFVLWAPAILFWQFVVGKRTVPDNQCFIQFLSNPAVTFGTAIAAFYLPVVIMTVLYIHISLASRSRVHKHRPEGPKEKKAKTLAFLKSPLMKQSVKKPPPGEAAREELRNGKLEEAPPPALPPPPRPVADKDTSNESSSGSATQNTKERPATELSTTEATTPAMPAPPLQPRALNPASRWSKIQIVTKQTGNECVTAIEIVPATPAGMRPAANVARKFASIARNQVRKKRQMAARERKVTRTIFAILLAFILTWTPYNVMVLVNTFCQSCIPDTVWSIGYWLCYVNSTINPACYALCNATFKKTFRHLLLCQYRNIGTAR
In words: mAChR M4 cell-based functional assay (calcium flux, antagonism of EC80 acetylcholine response). To be noted: M4/Gqi5/CHO-K1 cells; for remaining activity at 30 µM: % ACh maximum at 30 μM, read-out: Human M4 Emin (% ACh maximum at 30 μM); for IC50: concentration-dependent decrease of the response elicited by an EC80 concentration of acetylcholine. As to the method: Human or rat M4 cDNA, along with the chimeric G protein Gqi5, were transfected into Chinese hamster ovary (CHO-K1) cells purchased from the American Type Culture Collection using Lipofectamine2000. M4/Gqi5/CHO cells were grown in Ham's F-12 medium containing 10% heat-inactivated fetal bovine serum (FBS), 20 mM HEPES, 500 μg/mL G418 sulfate, and 200 μg/mL Hygromycin B.
For high throughput measurement of agonist-evoked increases in intracellular calcium, CHO-K1 cells stably expressing muscarinic receptors were plated in growth medium lacking G418 and hygromycin at 15,000 cells/20 μL/well in Greiner 384-well black-walled, tissue culture (TC)-treated, clear-bottom plates (VWR). Cells were incubated overnight at 37° C. and 5% CO2. The next day, cells were washed using an ELX 405 (BioTek) with assay buffer; the final volume was then aspirated to 20 μL. Next, 20 μL of a 2.3 μM stock of Fluo-4/acetoxymethyl ester (Invitrogen, Carlsbad, CA), prepared as a 2.3 mM stock in DMSO and mixed in a 1:1 ratio with 10% (w/v) Pluronic F-127 and diluted in assay buffer, was added to the wells and the cell plates were incubated for 50 min at 37° C. and 5% CO2. Dye was removed by washing with the ELX 405 and the final volume was aspirated to 20 μL. Compound master plates were formatted in a 10 point concentration-response curve (CRC) format (1:3 dilutions) in 100% DMSO with a starting concentration of 10 or 1 mM using a BRAVO liquid handler (Agilent). Test compound CRCs were then transferred to daughter plates (240 nL) using the Echo acoustic plate reformatter (Labcyte, Sunnyvale, CA) and then diluted into assay buffer (40 μL) to a 2× stock using a Thermo Fisher Combi (Thermo Fisher Scientific, Waltham, MA).
Calcium flux was measured using the Functional Drug Screening System (FDSS) 6000 or 7000 (Hamamatsu Corporation, Tokyo, Japan) as an increase in the fluorescent static ratio. Compounds were applied to cells (20 μL, 2×) using the automated system of the FDSS at 2 seconds into the protocol and the data were collected at 1 Hz. At 143 s, 10 μL of an EC20 concentration of the muscarinic receptor agonist acetylcholine was added (5×), followed by the addition of 12 μL of an EC80 concentration of acetylcholine at the 268 s time point (5×). Agonist activity was analyzed as a concentration-dependent increase in calcium mobilization upon compound addition. Positive allosteric modulator activity was analyzed as a concentration-dependent increase in the EC20 acetylcholine response. Antagonist activity was analyzed as a concentration-dependent decrease in the EC80 acetylcholine response; for the purposes of the tables herein, an IC50 (inhibitory concentration 50) was calculated as a concentration-dependent decrease of the response elicited by an EC80 concentration of acetylcholine. Concentration-response curves were generated using a four-parameter logistical equation in XLFit curve fitting software (IDBS, Bridgewater, NJ) for Excel (Microsoft, Redmond, WA) or Prism (GraphPad Software, Inc., San Diego, CA) or the Dotmatics software platform (Dotmatics, Bishop's Stortford, UK).
Compounds were synthesized as described above. Activity (IC50 and Emin) was determined in the mAChR M4 cell-based functional assay as described above and the data are shown in Table 2.
Background: Calcium flux is commonly read through the fluorescence of an indicator in the cells.

With `CC(=O)Nc1ccc(-c2ccc(N[C@H]3C[C@@H]4CN(Cc5ccccc5C(F)(F)F)C[C@@H]4C3)nn2)cc1` [Compound A7, N-(4-(6-(((3aR,5s,6aS)-2-(2-(trifluoromethyl)benzyl)octahydrocyclopenta [c]pyrrol-5-yl)amino)pyridazin-3-yl)phenyl)acetamide], the remaining activity at 30 µM worked out at 10% and the IC50 (as a rule, the concentration at which inhibition is half-maximal) was determined as 1100 nM.
As for `[2H]C([2H])(C1CCOCC1)N1C[C@H]2C[C@H](Nc3ccc(-c4cc(F)c(C(=O)NC)c(F)c4F)nn3)C[C@H]2C1` [Compound A66, 2,3,6-trifluoro-N-methyl-4-(6-(((3aR,5s,6aS)-2-((tetrahydro-2H-pyran-4-yl)methyl-d2)octahydrocyclopenta[c]pyrrol-5-yl)amino)pyridazin-3-yl)benzamide], the remaining activity at 30 µM was found to be 4% and the IC50 stood at 16 nM.
With `[2H]C([2H])(C1CCOCC1)N1C[C@H]2C[C@H](Nc3ccc(-c4ccc(C(=O)NCC)cc4)nn3)C[C@H]2C1` [Compound A52, N-ethyl-4-(6-(((3aR,5s,6aS)-2-((tetrahydro-2H-pyran-4-yl)methyl-d2)octahydrocyclopenta[c]pyrrol-5-yl)amino)pyridazin-3-yl)benzamide], the remaining activity at 30 µM worked out at 5% and the IC50 worked out at 7.8 nM.
Take `[2H]C([2H])([2H])NC(=O)c1ccccc1-c1ccc(N[C@H]2C[C@@H]3CN(CC4CCOCC4)C[C@@H]3C2)nn1` [Compound A60, N-(methyl-d3)-2-(6-(((3aR,5s,6aS)-2-((tetrahydro-2H-pyran-4-yl)methyl)octahydrocyclopenta[c]pyrrol-5-yl)amino)pyridazin-3-yl)benzamide]: the remaining activity at 30 µM was found to be 6% and the IC50 turned out to be 210 nM.
On to `[2H]C([2H])(C1CCOC(C)(C)C1)N1C[C@H]2C[C@H](Nc3ccc(-c4cc(F)cc(C(=O)NC)c4)nn3)C[C@H]2C1` (stereo partly drawn) [Compound A83, 3-(6-(((3aR,5s,6aS)-2-((2,2-dimethyltetrahydro-2H-pyran-4-yl)methyl-d2)octahydrocyclopenta[c]pyrrol-5-yl)amino)pyridazin-3-yl)-5-fluoro-N-methylbenzamide], for which the remaining activity at 30 µM was 4% and the IC50 was 2.7 nM.
For `[2H]C([2H])([C@H]1CCCCO1)N1C[C@H]2C[C@H](Nc3ccc(-c4cccc(C(=O)NC)c4)nn3)C[C@H]2C1` [Compound A81, N-methyl-3-(6-(((3aR,5s,6aS)-2-(((R)-tetrahydro-2H-pyran-2-yl)methyl-d2)octahydrocyclopenta[c]pyrrol-5-yl)amino)pyridazin-3-yl)benzamide], in that order: 4% and 0.41 nM.
For `[2H]C([2H])(C1CCOCC1)N1C[C@H]2C[C@H](Nc3ccc(-c4cccc(C(=O)NCC)c4)nn3)C[C@H]2C1` [Compound A46, N-ethyl-3-(6-(((3aR,5s,6aS)-2-((tetrahydro-2H-pyran-4-yl)methyl-d2)octahydrocyclopenta[c]pyrrol-5-yl)amino)pyridazin-3-yl)benzamide], in that order: 4% and 20 nM.
For the compound `[2H]C([2H])([2H])NC(=O)c1ccccc1-c1ccc(N[C@H]2C[C@@H]3CN(C([2H])([2H])C4CCOCC4)C[C@@H]3C2)nn1` [Compound A53, N-(methyl-d3)-2-(6-(((3aR,5s,6aS)-2-((tetrahydro-2H-pyran-4-yl)methyl-d2)octahydrocyclopenta[c]pyrrol-5-yl)amino)pyridazin-3-yl)benzamide], the remaining activity at 30 µM worked out at 4% and the IC50 came to 200 nM.
In the case of `O=C(Nc1ccc(-c2ccc(N[C@H]3C[C@@H]4CN(CC5CCOCC5)C[C@@H]4C3)nn2)cc1)C1CC1` [Compound A26, N-(4-(6-(((3aR,5s,6aS)-2-((tetrahydro-2H-pyran-4-yl)methyl)octahydrocyclopenta[c]pyrrol-5-yl)amino)pyridazin-3-yl)phenyl)cyclopropanecarboxamide], the remaining activity at 30 µM amounted to 3% and the IC50 worked out at 6.8 nM.
With `[2H]C([2H])(C1CCOCC1)N1C[C@H]2C[C@H](Nc3ccc(-c4ccc(C(=O)NC)cc4)nn3)C[C@H]2C1` (single isomer, unassigned) [Compound A64], the remaining activity at 30 µM is 5% and the IC50 was 16 nM.
For `[2H]C([2H])(C1CCOCC1)N1C[C@H]2C[C@H](Nc3ccc(-c4cccc(NC(=O)CC)c4)nn3)C[C@H]2C1` [Compound A57, N-(3-(6-(((3aR,5s,6aS)-2-((tetrahydro-2H-pyran-4-yl)methyl-d2)octahydrocyclopenta[c]pyrrol-5-yl)amino)pyridazin-3-yl)phenyl)propionamide], in that order: 3% and 37 nM.
The corresponding values for `CCC(=O)Nc1cccc(-c2ccc(N[C@H]3C[C@@H]4CN(CC5CCOCC5)C[C@@H]4C3)nn2)c1` [Compound A56, N-(3-(6-(((3aR,5s,6aS)-2-((tetrahydro-2H-pyran-4-yl)methyl)octahydrocyclopenta[c]pyrrol-5-yl)amino)pyridazin-3-yl)phenyl)propionamide] are 4% and 43 nM.
Take `O=C(c1cc(F)c(F)c(-c2ccc(N[C@H]3C[C@@H]4CN(CC5CCOCC5)C[C@@H]4C3)nn2)c1)N1CCOCC1` [Compound A10, (3,4-difluoro-5-(6-(((3aR,5s,6aS)-2-((tetrahydro-2H-pyran-4-yl)methyl)octahydrocyclopenta[c]pyrrol-5-yl)amino)pyridazin-3-yl)phenyl)(morpholino)methanone]: the remaining activity at 30 µM came out at 3% and the IC50 was 82 nM.
For `[2H]C([2H])(C1CCOCC1)N1C[C@H]2C[C@H](Nc3ccc(-c4ccc(C(=O)NC)c(F)c4)nn3)C[C@H]2C1` [Compound A70, 2-fluoro-N-methyl-4-(6-(((3aR,5s,6aS)-2-((tetrahydro-2H-pyran-4-yl)methyl-d2)octahydrocyclopenta[c]pyrrol-5-yl)amino)pyridazin-3-yl)benzamide], in that order: 4% and 4.7 nM.
For `CCN(CC)C(=O)c1ccc(-c2ccc(N[C@H]3C[C@@H]4CN(CC5CCOCC5)C[C@@H]4C3)nn2)c(F)c1` [Compound A38, N,N-diethyl-3-fluoro-4-(6-(((3aR,5s,6aS)-2-((tetrahydro-2H-pyran-4-yl)methyl)octahydrocyclopenta[c]pyrrol-5-yl)amino)pyridazin-3-yl)benzamide], in that order: 4% and 48 nM.
Take `CNC(=O)c1cccc(-c2ccc(N[C@H]3C[C@@H]4CN(CC5CCOCC5)C[C@@H]4C3)nn2)c1` [Compound A41, N-methyl-3-(6-(((3aR,5s,6aS)-2-((tetrahydro-2H-pyran-4-yl)methyl)octahydrocyclopenta[c]pyrrol-5-yl)amino)pyridazin-3-yl)benzamide]: the remaining activity at 30 µM amounted to 5% and the IC50 came to 12 nM.
